≈ marks a conversion by molar mass, not a printed value.
Tests used:
Format in all cases: functional
Staphylococcus aureus [1] = assay: Antibacterial activity against Staphylococcus aureus after 3 to 7 days by cup diffusion method
Bacillus subtilis [2] = assay: Antibacterial activity against Bacillus subtilis after 3 to 7 days by cup diffusion method
[3] = tested on: Aggregatibacter actinomycetemcomitans; assay: Antibacterial activity against Aggregatibacter actinomycetemcomitans ATCC 29524 assessed as zone of inhibition at 10 mg/ml after 3 to 7 days by cup diffusion method; conditions: read-out: IZ
[4] = tested on: Aggregatibacter actinomycetemcomitans; assay: Antibacterial activity against Aggregatibacter actinomycetemcomitans ATCC 29524 after 3 to 7 days by cup diffusion method
Escherichia coli [5] = assay: Antibacterial activity against Escherichia coli assessed as zone of inhibition at 10 mg/ml after 3 to 7 days by cup diffusion method; conditions: read-out: IZ
Mycolicibacterium phlei [6] = assay: Antibacterial activity against Mycobacterium phlei clinical isolate after 3 to 7 days by cup diffusion method
Bacillus subtilis [7] = assay: Antibacterial activity against Bacillus subtilis assessed as zone of inhibition at 10 mg/ml after 3 to 7 days by cup diffusion method; conditions: read-out: IZ
Pseudomonas aeruginosa [8] = assay: Antibacterial activity against Pseudomonas aeruginosa assessed as zone of inhibition at 10 mg/ml after 3 to 7 days by cup diffusion method; conditions: read-out: IZ
Pseudomonas aeruginosa [9] = assay: Antibacterial activity against Pseudomonas aeruginosa after 3 to 7 days by cup diffusion method
Staphylococcus aureus [10] = assay: Antibacterial activity against Staphylococcus aureus assessed as zone of inhibition at 10 mg/ml after 3 to 7 days by cup diffusion method; conditions: read-out: IZ
Mycolicibacterium phlei [11] = assay: Antibacterial activity against Mycobacterium phlei clinical isolate assessed as zone of inhibition at 10 mg/ml after 3 to 7 days by cup diffusion method; conditions: read-out: IZ
Escherichia coli [12] = assay: Antibacterial activity against Escherichia coli after 3 to 7 days by cup diffusion method
Staphylococcus aureus [13] = assay: Antibacterial activity against Staphylococcus aureus
Escherichia coli [14] = assay: Antibacterial activity against Escherichia coli
[15] = Staphylococcus aureus, read-out: MIC
[16] = Bacillus subtilis, read-out: MIC
[17] = Aggregatibacter actinomycetemcomitans, ATCC 29524, read-out: MIC
[18] = Mycolicibacterium phlei, read-out: MIC
[19] = Pseudomonas aeruginosa, read-out: MIC
[20] = Escherichia coli, read-out: MIC

SMILES | MIC (Staphylococcus aureus [1]; [15]) [µM] | MIC (Bacillus subtilis [2]; [16]) [µM] | zone of inhibition at 10000 µg/mL [3] [mm] | MIC [4, 17] [µM] | zone of inhibition at 10000 µg/mL (Escherichia coli [5]) [mm] | MIC (Mycolicibacterium phlei [6]; [18]) [µM] | zone of inhibition at 10000 µg/mL (Bacillus subtilis [7]) [mm] | zone of inhibition at 10000 µg/mL (Pseudomonas aeruginosa [8]) [mm] | MIC (Pseudomonas aeruginosa [9]; [19]) [µM] | zone of inhibition at 10000 µg/mL (Staphylococcus aureus [10]) [mm] | zone of inhibition at 10000 µg/mL (Mycolicibacterium phlei [11]) [mm] | MIC (Escherichia coli [12]; [20]) [µM] | MIC (Staphylococcus aureus [13]) [mg/L] | MIC (Escherichia coli [14]) [mg/L] | also measured
CCn1cc(-c2nc(/N=C/c3ccccc3O)n[nH]2)c(=O)c2cc(Br)c(C)nc21 | 3.68 to 6.3 (≈ 1.67 to 2.86 µg/mL) | 3.68 to 6.3 (≈ 1.67 to 2.86 µg/mL) | 20 to 40 | 3.68 to 6.3 (≈ 1.67 to 2.86 µg/mL) | 20 to 40 | 3.68 to 6.3 (≈ 1.67 to 2.86 µg/mL) | 20 to 40 | 20 to 40 | 3.68 to 6.3 (≈ 1.67 to 2.86 µg/mL) | 20 to 40 | 20 to 40 | 3.68 to 6.3 (≈ 1.67 to 2.86 µg/mL) | – | – | –
CCN1CCN(Cn2nc3c(F)cc4c(=O)c(C(=O)O)cn(C5CC5)c4n3c2=S)CC1 | – | – | – | – | – | – | – | – | – | – | – | – | 0.125 to 8 (≈ 0.28 to 17.9 µM) | 0.125 to 8 (≈ 0.28 to 17.9 µM) | –
CN(C)Cn1nc2c(F)cc3c(=O)c(C(=O)O)cn(C4CC4)c3n2c1=S | – | – | – | – | – | – | – | – | – | – | – | – | 4 to 32 (≈ 10.6 to 84.8 µM) | 4 to 32 (≈ 10.6 to 84.8 µM) | –
CN1CCN(Cn2nc3c(F)cc4c(=O)c(C(=O)O)cn(C5CC5)c4n3c2=S)CC1 | – | – | – | – | – | – | – | – | – | – | – | – | 0.125 to 8 (≈ 0.289 to 18.5 µM) | 0.125 to 8 (≈ 0.289 to 18.5 µM) | –
CC1CNCCN1Cn1nc2c(F)cc3c(=O)c(C(=O)O)cn(C4CC4)c3n2c1=S (stereo not drawn) | – | – | – | – | – | – | – | – | – | – | – | – | 0.125 to 0.5 (≈ 0.289 to 1.16 µM) | 0.125 to 0.5 (≈ 0.289 to 1.16 µM) | –
CCn1cc(-c2nc(/N=C/c3ccc(Cl)cc3)n[nH]2)c(=O)c2cc(Br)c(C)nc21 | 3.68 to 6.3 (≈ 1.74 to 2.97 µg/mL) | 3.68 to 6.3 (≈ 1.74 to 2.97 µg/mL) | 20 to 40 | 3.68 to 6.3 (≈ 1.74 to 2.97 µg/mL) | 20 to 40 | 3.68 to 6.3 (≈ 1.74 to 2.97 µg/mL) | 20 to 40 | 20 to 40 | 3.68 to 6.3 (≈ 1.74 to 2.97 µg/mL) | 20 to 40 | 20 to 40 | 3.68 to 6.3 (≈ 1.74 to 2.97 µg/mL) | – | – | –
CCn1cc(-c2nc(/N=C/c3ccc(F)cc3)n[nH]2)c(=O)c2cc(Br)c(C)nc21 | 3.68 to 6.3 (≈ 1.68 to 2.87 µg/mL) | 3.68 to 6.3 (≈ 1.68 to 2.87 µg/mL) | 20 to 40 | 3.68 to 6.3 (≈ 1.68 to 2.87 µg/mL) | 20 to 40 | 3.68 to 6.3 (≈ 1.68 to 2.87 µg/mL) | 20 to 40 | 20 to 40 | 3.68 to 6.3 (≈ 1.68 to 2.87 µg/mL) | 20 to 40 | 20 to 40 | 3.68 to 6.3 (≈ 1.68 to 2.87 µg/mL) | – | – | –
CCn1cc(-c2nc(NC(=O)c3ccc(OC)cc3)n[nH]2)c(=O)c2cc(Br)c(C)nc21 | 3.68 to 6.3 (≈ 1.78 to 3.04 µg/mL) | 3.68 to 6.3 (≈ 1.78 to 3.04 µg/mL) | 20 to 40 | 3.68 to 6.3 (≈ 1.78 to 3.04 µg/mL) | 20 to 40 | 3.68 to 6.3 (≈ 1.78 to 3.04 µg/mL) | 20 to 40 | 20 to 40 | 3.68 to 6.3 (≈ 1.78 to 3.04 µg/mL) | 20 to 40 | 20 to 40 | 3.68 to 6.3 (≈ 1.78 to 3.04 µg/mL) | – | – | –
CCn1cc(-c2nc(/N=C/c3ccccc3O)n[nH]2)c(=O)c2ccc(C)nc21 | – | – | 20 to 40 | – | 20 to 40 | – | 20 to 40 | 20 to 40 | – | 20 to 40 | 20 to 40 | – | – | – | MIC (Bacillus subtilis [2]): >=0.031 - 32 ug ml-1; MIC [4]: >=0.031 - 32 ug ml-1; MIC (Mycolicibacterium phlei [6]): >=0.031 - 32 ug ml-1; MIC (Pseudomonas aeruginosa [9]): >=0.031 - 32 ug ml-1; MIC (Escherichia coli [12]): >=0.031 - 32 ug ml-1
CCn1cc(-c2nc(NC(=O)c3ccc(Cl)cc3)n[nH]2)c(=O)c2ccc(C)nc21 | – | – | 20 to 40 | – | 20 to 40 | – | 20 to 40 | 20 to 40 | – | 20 to 40 | 20 to 40 | – | – | – | MIC (Staphylococcus aureus [1]): >=0.031 - 32 ug ml-1; MIC (Bacillus subtilis [2]): >=0.031 - 32 ug ml-1; MIC [4]: >=0.031 - 32 ug ml-1; MIC (Mycolicibacterium phlei [6]): >=0.031 - 32 ug ml-1; MIC (Pseudomonas aeruginosa [9]): >=0.031 - 32 ug ml-1; MIC (Escherichia coli [12]): >=0.031 - 32 ug ml-1
O=C(O)c1cn(C2CC2)c2c(cc(F)c3nn(CN4CCOCC4)c(=S)n32)c1=O | – | – | – | – | – | – | – | – | – | – | – | – | 0.125 to 8 (≈ 0.298 to 19.1 µM) | 0.125 to 8 (≈ 0.298 to 19.1 µM) | –
CCN(CC)Cn1nc2c(F)cc3c(=O)c(C(=O)O)cn(C4CC4)c3n2c1=S | – | – | – | – | – | – | – | – | – | – | – | – | 4 to 32 (≈ 9.87 to 78.9 µM) | 4 to 32 (≈ 9.87 to 78.9 µM) | –

Reference: ChEMBL document CHEMBL4346717, “1,2,4-Triazole-quinoline/quinolone hybrids as potential anti-bacterial agents” (Eur J Med Chem, 2019)
